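Method: 48-hour compound exposure of cells in 96-well plates, five concentrations, linear interpolation of endpoints. The concentration for 50% growth inhibition is given as GI50.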 Active and inactive are the calls of the source. Rule as the data show it: active = GI50 up to about 1.1 µM and inactive = higher.
What was measured:
Experiment in all cases: NCI-60 cell line screen, 48 h
[1] = tested on: BT-549
[2] = tested on: COLO 205
[3] = tested on: EKVX
[4] = tested on: HT-29
[5] = tested on: Hs-578T
[6] = tested on: IGROV-1
[7] = tested on: MDA-MB-435
[8] = tested on: NCI-H23
[9] = tested on: PC-3
[10] = tested on: SN12C
[11] = tested on: SNB-19
[12] = tested on: SR
[13] = tested on: TK-10
[14] = tested on: MCF7
[15] = tested on: MDA-MB-231
[16] = tested on: NCI-H226
[17] = tested on: UACC-62

Compound	GI50 [1]	GI50 [2]	GI50 [3]	GI50 [4]	GI50 [5]	GI50 [6]	GI50 [7]	GI50 [8]	GI50 [9]	GI50 [10]	GI50 [11]	GI50 [12]	GI50 [13]	GI50 [14]	GI50 [15]	GI50 [16]	GI50 [17]
CCOC(=O)C(NC(=O)CC)(Nc1cc(C)on1)C(F)(F)F (stereo not drawn)	> 100 µM (inactive)	> 100 µM (inactive)	> 100 µM (inactive)	> 100 µM (inactive)	> 100 µM (inactive)	> 100 µM (inactive)	> 100 µM (inactive)	> 100 µM (inactive)	> 100 µM (inactive)	> 100 µM (inactive)	> 100 µM (inactive)	> 100 µM (inactive)	> 100 µM (inactive)	–	–	–	–
CC1C2(C)OC(=N)C(C#N)(C(C)O2)C1(C#N)C#N (stereo not drawn)	31.6 µM (inactive)	12.1 µM (inactive)	30.8 µM (inactive)	28.2 µM (inactive)	29.4 µM (inactive)	39.5 µM (inactive)	–	28.8 µM (inactive)	31.8 µM (inactive)	16.3 µM (inactive)	> 10 µM (inactive)	–	36.8 µM (inactive)	24.8 µM (inactive)	19.9 µM (inactive)	> 100 µM (inactive)	19.8 µM (inactive)
CCN1CCN=c2c3cc(OC)ccc3n3cnc4ccc1c2c43	–	0.15 µM (active)	0.231 µM (active)	0.173 µM (active)	0.313 µM (active)	2.02 µM (inactive)	0.197 µM (active)	0.328 µM (active)	0.207 µM (active)	0.142 µM (active)	0.301 µM (active)	0.0283 µM (active)	0.411 µM (active)	0.219 µM (active)	0.275 µM (active)	0.323 µM (active)	0.246 µM (active)
Cn1c(=O)[nH]c2[nH]c3ccccc3c2c1=O	> 100 µM (inactive)	> 100 µM (inactive)	> 100 µM (inactive)	> 100 µM (inactive)	65.5 µM (inactive)	> 100 µM (inactive)	> 100 µM (inactive)	> 100 µM (inactive)	–	> 100 µM (inactive)	> 100 µM (inactive)	> 100 µM (inactive)	> 100 µM (inactive)	> 100 µM (inactive)	> 100 µM (inactive)	> 100 µM (inactive)	> 100 µM (inactive)
CN(C)CCCNC(=O)c1cc(NC(=O)CCCn2c3ccccc3c3ccccc32)cn1C	> 100 µM (inactive)	21.9 µM (inactive)	15.6 µM (inactive)	47.6 µM (inactive)	–	6.64 µM (inactive)	24.3 µM (inactive)	31.8 µM (inactive)	20.7 µM (inactive)	48.5 µM (inactive)	25 µM (inactive)	–	22.5 µM (inactive)	35.5 µM (inactive)	21 µM (inactive)	25.3 µM (inactive)	20.8 µM (inactive)
COC(=O)c1ccc2c(c1)S/C(=C/c1ccc3ccc4cccc5ccc1c3c45)S2	35.8 µM (inactive)	> 100 µM (inactive)	> 100 µM (inactive)	> 100 µM (inactive)	37.9 µM (inactive)	46 µM (inactive)	26.6 µM (inactive)	19 µM (inactive)	48.1 µM (inactive)	> 100 µM (inactive)	50.6 µM (inactive)	–	98.4 µM (inactive)	33.3 µM (inactive)	> 100 µM (inactive)	> 100 µM (inactive)	22.9 µM (inactive)
CCOC(=O)/C=C/C1=C(Br)[C@@]2(C)CC[C@@H]3c4ccc(O)cc4CC[C@H]3[C@@H]2C1	14.3 µM (inactive)	17.8 µM (inactive)	17.1 µM (inactive)	14.6 µM (inactive)	15.6 µM (inactive)	12.2 µM (inactive)	15.2 µM (inactive)	13.7 µM (inactive)	15.2 µM (inactive)	13.6 µM (inactive)	16.6 µM (inactive)	7.03 µM (inactive)	17.9 µM (inactive)	13.6 µM (inactive)	–	15.2 µM (inactive)	6.85 µM (inactive)
Oc1c(N2CCCCC2)cc(-c2cc(N3CCCCC3)c(O)c3ccccc23)c2ccccc12	–	26.2 µM (inactive)	> 100 µM (inactive)	23 µM (inactive)	27.7 µM (inactive)	43.7 µM (inactive)	4.24 µM (inactive)	24.9 µM (inactive)	31.3 µM (inactive)	27.6 µM (inactive)	98.4 µM (inactive)	0.368 µM (active)	> 100 µM (inactive)	22.9 µM (inactive)	39.8 µM (inactive)	> 100 µM (inactive)	21.1 µM (inactive)
NNC(=O)c1ccccc1NC(=O)/C(=C/c1ccccc1)NC(=O)c1ccccc1	60.4 µM (inactive)	> 100 µM (inactive)	> 100 µM (inactive)	> 100 µM (inactive)	54.1 µM (inactive)	68.1 µM (inactive)	54.3 µM (inactive)	> 100 µM (inactive)	> 100 µM (inactive)	> 100 µM (inactive)	43 µM (inactive)	–	> 100 µM (inactive)	> 100 µM (inactive)	47.9 µM (inactive)	> 100 µM (inactive)	> 100 µM (inactive)
CC(Cc1ccccc1)N(C)Cc1nc(C2CCC([N+](=O)[O-])O2)no1 (stereo not drawn)	–	3.72 µM (inactive)	28.4 µM (inactive)	2.77 µM (inactive)	2.46 µM (inactive)	8.55 µM (inactive)	6.82 µM (inactive)	5.18 µM (inactive)	–	2.51 µM (inactive)	12.2 µM (inactive)	16.7 µM (inactive)	13.5 µM (inactive)	4.06 µM (inactive)	2.47 µM (inactive)	16.9 µM (inactive)	5.96 µM (inactive)
CNC(=S)Nc1ccc(OC)c2ccccc12	> 10 µM (inactive)	> 10 µM (inactive)	–	> 10 µM (inactive)	> 10 µM (inactive)	> 10 µM (inactive)	> 10 µM (inactive)	> 10 µM (inactive)	> 10 µM (inactive)	> 10 µM (inactive)	> 10 µM (inactive)	> 10 µM (inactive)	> 10 µM (inactive)	> 10 µM (inactive)	> 10 µM (inactive)	–	> 10 µM (inactive)
CCOc1ccc2ccccc2c1NC1=NCCO1	–	36.6 µM (inactive)	60.8 µM (inactive)	30.3 µM (inactive)	23.1 µM (inactive)	33.9 µM (inactive)	25.8 µM (inactive)	28.8 µM (inactive)	–	> 100 µM (inactive)	29.6 µM (inactive)	31.5 µM (inactive)	> 100 µM (inactive)	37.8 µM (inactive)	> 100 µM (inactive)	25.7 µM (inactive)	39.4 µM (inactive)
CO[C@]12C[C@@H](CNC(=O)c3cc(Br)c[nH]3)O[C@H]1NC(=O)N2	> 100 µM (inactive)	> 100 µM (inactive)	> 100 µM (inactive)	> 100 µM (inactive)	> 100 µM (inactive)	> 100 µM (inactive)	> 100 µM (inactive)	> 100 µM (inactive)	> 100 µM (inactive)	> 100 µM (inactive)	> 100 µM (inactive)	–	> 100 µM (inactive)	> 100 µM (inactive)	> 100 µM (inactive)	> 100 µM (inactive)	> 100 µM (inactive)
CCN(CC)c1c(C(C)(C)C)c(=O)n2ccsc2c1OC(C)=O	15.5 µM (inactive)	16.9 µM (inactive)	15.1 µM (inactive)	14.8 µM (inactive)	22.9 µM (inactive)	16.8 µM (inactive)	18 µM (inactive)	16.1 µM (inactive)	11.2 µM (inactive)	18.2 µM (inactive)	16.6 µM (inactive)	–	19.8 µM (inactive)	15.6 µM (inactive)	17.8 µM (inactive)	15.4 µM (inactive)	16.9 µM (inactive)
Cc1ccc(Nc2nc(N)nc3c2ncn3C2OC(CO)C(O)C2O)cc1 (stereo not drawn)	–	> 100 µM (inactive)	> 100 µM (inactive)	> 100 µM (inactive)	–	> 100 µM (inactive)	> 100 µM (inactive)	> 100 µM (inactive)	> 100 µM (inactive)	> 100 µM (inactive)	> 100 µM (inactive)	–	> 100 µM (inactive)	> 100 µM (inactive)	98.9 µM (inactive)	> 100 µM (inactive)	> 100 µM (inactive)
O=c1c2ccc(Cl)cc2oc2c(CNc3ccc(S(=O)(=O)Nc4nccs4)cc3)cccc12	> 100 µM (inactive)	> 100 µM (inactive)	> 100 µM (inactive)	> 100 µM (inactive)	–	> 100 µM (inactive)	> 100 µM (inactive)	> 100 µM (inactive)	> 100 µM (inactive)	> 100 µM (inactive)	> 100 µM (inactive)	> 100 µM (inactive)	> 100 µM (inactive)	> 100 µM (inactive)	98.6 µM (inactive)	> 100 µM (inactive)	> 100 µM (inactive)
COC(=O)[C@H](Cc1c[nH]c2ccccc12)NC(=O)OCC1OC(n2cc(C)c(=O)[nH]c2=O)CC1N=[N+]=[N-] (stereo partly drawn)	> 100 µM (inactive)	> 100 µM (inactive)	> 100 µM (inactive)	> 100 µM (inactive)	46.3 µM (inactive)	> 100 µM (inactive)	> 100 µM (inactive)	76 µM (inactive)	> 100 µM (inactive)	> 100 µM (inactive)	> 100 µM (inactive)	–	> 100 µM (inactive)	> 100 µM (inactive)	> 100 µM (inactive)	> 100 µM (inactive)	61.5 µM (inactive)
O=S(=O)(O)c1cccc2c(/N=N/c3c(O)ccc4ccccc34)cccc12	> 100 µM (inactive)	> 100 µM (inactive)	> 100 µM (inactive)	> 100 µM (inactive)	> 100 µM (inactive)	> 100 µM (inactive)	> 100 µM (inactive)	> 100 µM (inactive)	> 100 µM (inactive)	> 100 µM (inactive)	> 100 µM (inactive)	> 100 µM (inactive)	> 100 µM (inactive)	–	> 100 µM (inactive)	> 100 µM (inactive)	> 100 µM (inactive)

From ChEMBL document CHEMBL1201862, “PubChem BioAssay data set” (2004)
